Laboratory results: patent publication US6355799B1, “Substituted benzene compounds, process for their preparation, and herbicidal and defoliant compositions containing them” (ISK Americas Incorporated, priority 1997, dated 2002)

Experiments:
Assay type in all cases: in vivo
[1] = tested on: green foxtail (Setaria viridis, SETVI); test: Post-emerge test, greenhouse herbicide activity screening; conditions: post-emerge, 14 days after application, rating scale 0-100
Text: (§1) A standard greenhouse herbicide activity screening system was used to evaluate the herbicidal efficacy and crop safety of these test compounds. Seven broadleaf weed species including redroot pigweed (Amaranthus retroflexus, AMARE, velvetleaf (Abutilon theophrasti, ABUTH), sicklepod (Cassia obtusifolia, CASOB), ivyleaf morningglory (Ipomoea hederacea, IPOHE), lambsquarters (Chenopodium album, CHEAL), common ragweed (Ambrosia artemisizfolia L., AMBEL), and cocklebur (Xanthium strumarium, XANST) were used as test species. Four grass weed species including green foxtail (Setaria viridis, SETVI), barnyardgrass (Echinochloa crus-galli, ECHCG), johnsongrass (Sorghum halepense, SORHA), and large crabgrass (Digitaria sanguinalis, DIGSA) were also used. In addition, three crop species, field corn (Zea mays L., var. Dekalb 535, CORN), soybean (Glycine max L., var. Pella 86, SOY), and is upland rice (Oryza sp., var. Tebonnet, RICE) were included.
(§2) All plants were grown in 10 cm square plastic pots which were filled with a sandy loam soil mix. For pre-emerge tests, seeds were planted one day prior to application of the test compounds. For post-emerge tests, seeds were planted 8-21 days prior to the test to allow emergence and good foliage development prior to application of the test substances. At the time of the post-emerge application, plants of all species were usually at the 2-3 leaf stage of development.
(§3) All test compounds Were dissolved in acetone and applied to the test units in a volume of 187 l /ha. Test materials were applied at rates ranging from 15 g ai/ha to 1000 g ai/ha using a track sprayer equipped with a TJ8001E even flow flat fan spray nozzle. Plants were arranged on a shelf so that the top of the canopy (post-emerge) or top of the soil surface (pre-emerge) was 40-45 cm below the nozzle. Pressurized air was used to force the test solution through the nozzle as it was mechanically advanced (via electrically driven chain drive) over the top of all test plants/pots. This application simulates a typical commercial field herbicide application.
(§4) In the post-emerge test, a commercial non-ionic surfactant was also included (0.25% v/v) to enhance wetting of the leaf surfaces of target plants. Immediately after application, test units of the pre-emerge applications were watered at the soil surface to incorporate the test materials. Subsequently, these test units were bottom-watered. Post-emerge test units were always bottom-watered.
(§5) At 14 days after application of the test materials, phytotoxicity ratings were recorded. A rating scale of 0-100 was used as previously described in Research Methods in Weed Science, 2nd edition, B. Truelove, Ed., Southern Weed Science Society, Auburn University, Auburn, Ala. 1977. Briefly, “0” corresponds to no damage and “100” corresponds to complete death of all plants in the test unit. This scale was used both to determine efficacy against weed species and damage to crop species. Herbicide activity data for various compounds of this invention, which are shown by compound No. in Tables 1-8, are shown in Tables 11 and 12.

[2] = tested on: lambsquarters (Chenopodium album, CHEAL); test: as above; conditions: post-emerge, 14 days after application, rating scale 0-100
Text: as §1, §2, §3, §4, §5

[3] = tested on: velvetleaf (Abutilon theophrasti, ABUTH); test: as above; conditions: post-emerge, 14 days after application, rating scale 0-100
Text: as §1, §2, §3, §4, §5

[4] = tested on: ivyleaf morningglory (Ipomoea hederacea, IPOHE); test: as above; conditions: post-emerge, 14 days after application, rating scale 0-100
Text: as §1, §2, §3, §4, §5

[5] = tested on: sicklepod (Cassia obtusifolia, CASOB); test: as above; conditions: post-emerge, 14 days after application, rating scale 0-100
Text: as §1, §2, §3, §4, §5

[6] = tested on: barnyardgrass (Echinochloa crus-galli, ECHCG); test: as above; conditions: post-emerge, 14 days after application, rating scale 0-100
Text: as §1, §2, §3, §4, §5

[7] = tested on: redroot pigweed (Amaranthus retroflexus, AMARE); test: as above; conditions: post-emerge, 14 days after application, rating scale 0-100
Text: as §1, §2, §3, §4, §5

[8] = tested on: large crabgrass (Digitaria sanguinalis, DIGSA); test: as above; conditions: post-emerge, 14 days after application, rating scale 0-100
Text: as §1, §2, §3, §4, §5

[9] = tested on: redroot pigweed (Amaranthus retroflexus, AMARE); test: Pre-emerge test, greenhouse herbicide activity screening; conditions: pre-emerge, 14 days after application, scale 0-100
Summary of the method: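 Herbicidal damage is scored 0 (none) to 100 (complete plant death) two weeks after a simulated field spray. Rates span 15–1000 g ai/ha, delivered in acetone at 187 l/ha. For post-emergence treatments, plants have 2–3 leaves and the spray carries 0.25% v/v non-ionic surfactant.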

[10] = tested on: green foxtail (Setaria viridis, SETVI); test: as above; conditions: pre-emerge, 14 days after application, scale 0-100
Text: as §1, §2, §3, §4, §5

[11] = tested on: lambsquarters (Chenopodium album, CHEAL); test: as above; conditions: pre-emerge, 14 days after application, scale 0-100
Text: as §1, §2, §3, §4, §5

[12] = tested on: velvetleaf (Abutilon theophrasti, ABUTH); test: as above; conditions: pre-emerge, 14 days after application, scale 0-100
Text: as §1, §2, §3, §4, §5

[13] = tested on: ivyleaf morningglory (Ipomoea hederacea, IPOHE); test: as above; conditions: pre-emerge, 14 days after application, scale 0-100
Text: as §1, §2, §3, §4, §5

[14] = tested on: sicklepod (Cassia obtusifolia, CASOB); test: as above; conditions: pre-emerge, 14 days after application, scale 0-100
Text: as §1, §2, §3, §4, §5

[15] = tested on: barnyardgrass (Echinochloa crus-galli, ECHCG); test: as above; conditions: pre-emerge, 14 days after application, scale 0-100
Text: as §1, §2, §3, §4, §5

[16] = tested on: large crabgrass (Digitaria sanguinalis, DIGSA); test: as above; conditions: pre-emerge, 14 days after application, scale 0-100
Text: as §1, §2, §3, §4, §5

[17] = tested on: field corn (Zea mays L., var. Dekalb 535, CORN); test: Post-emerge test, crop safety; conditions: post-emerge, 14 days after application, rating scale 0-100
Summary of the method: (§6)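 Each test used a mechanized track sprayer delivering 187 l/ha of acetone solution at 15–1000 g ai/ha. Post-emerge foliage at 2–3 leaves was treated with added 0.25% v/v non-ionic surfactant and bottom-watered only. Injury was assessed on day 14, where 100 means total kill.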

[18] = tested on: upland rice (Oryza sp., var. Tebonnet, RICE); test: Post-emerge test, crop safety; conditions: post-emerge, 63 g ai/ha, 14 days after application, rating scale 0-100
Summary of the method: as §6

[19] = tested on: field corn (Zea mays L., var. Dekalb 535, CORN); test: Pre-emerge test, crop safety; conditions: pre-emerge, 14 days after application, scale 0-100
Summary of the method: (§7)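 Plants grown in 10 cm pots of sandy loam mix received acetone-dissolved compounds through a moving flat-fan nozzle. Doses ranged from 15 to 1000 g ai/ha. Pre-emerge pots were seeded one day earlier, post-emerge pots 8–21 days earlier. Fourteen days on, each pot was graded 0–100 for damage.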

[20] = tested on: upland rice (Oryza sp., var. Tebonnet, RICE); test: Pre-emerge test, crop safety; conditions: pre-emerge, 14 days after application, scale 0-100
Summary of the method: as §7

C=Cc1ccc(C(=O)Nc2c(OC)c(Br)cc(F)c2-n2c(=O)cc(C(F)(F)F)n(C)c2=O)cc1 [2-182] showed an SETVI phytotoxicity rating ([1]; 63 g ai/ha) of 10, an SETVI phytotoxicity rating ([1]; 250 g ai/ha) of 80 and a CHEAL phytotoxicity rating ([2]; 63 g ai/ha) of 95. For the same compound, the CHEAL phytotoxicity rating ([2]; 250 g ai/ha) was 100, the ABUTH phytotoxicity rating ([3]; 63 g ai/ha) was 100 and the ABUTH phytotoxicity rating ([3]; 250 g ai/ha) was 100. It also gave an IPOHE phytotoxicity rating ([4]; 63 g ai/ha) of 100, an IPOHE phytotoxicity rating ([4]; 250 g ai/ha) of 100 and a CASOB phytotoxicity rating ([5]; 63 g ai/ha) of 60. For the same compound, the CASOB phytotoxicity rating ([5]; 250 g ai/ha) was 95, the ECHCG phytotoxicity rating ([6]; 63 g ai/ha) was 0 and the ECHCG phytotoxicity rating ([6]; 250 g ai/ha) was 30. For the same compound, the AMARE phytotoxicity rating ([7]; 63 g ai/ha) was 90, the AMARE phytotoxicity rating ([7]; 250 g ai/ha) was 95 and the DIGSA phytotoxicity rating ([8]; 63 g ai/ha) was 0. For the same compound, the DIGSA phytotoxicity rating ([8]; 250 g ai/ha) was 20, the “phytotoxicity rating AMARE” value ([9]; 63 g ai/ha) was 90 and the “phytotoxicity rating AMARE” value ([9]; 250 g ai/ha) was 100. The “phytotoxicity rating SETVI” value ([10]; 63 g ai/ha) was 30, the “phytotoxicity rating SETVI” value ([10]; 250 g ai/ha) was 90 and the “phytotoxicity rating CHEAL” value ([11]; 63 g ai/ha) was 100. For the same compound, the “phytotoxicity rating CHEAL” value ([11]; 250 g ai/ha) was 100, the “phytotoxicity rating ABUTH” value ([12]; 63 g ai/ha) was 100 and the “phytotoxicity rating ABUTH” value ([12]; 250 g ai/ha) was 100. For the same compound, the “phytotoxicity rating IPOHE” value ([13]; 63 g ai/ha) was 0, the “phytotoxicity rating IPOHE” value ([13]; 250 g ai/ha) was 100 and the “phytotoxicity rating CASOB” value ([14]; 63 g ai/ha) was 10. For the same compound, the “phytotoxicity rating CASOB” value ([14]; 250 g ai/ha) was 60, the “phytotoxicity rating ECHCG” value ([15]; 63 g ai/ha) was 10 and the “phytotoxicity rating ECHCG” value ([15]; 250 g ai/ha) was 60. For the same compound, the “phytotoxicity rating DIGSA” value ([16]; 63 g ai/ha) was 30, the “phytotoxicity rating DIGSA” value ([16]; 250 g ai/ha) was 90 and the “CORN phytotoxicity rating (crop damage)” value ([17]; 63 g ai/ha) was 5. The “CORN phytotoxicity rating (crop damage)” value ([17]; 250 g ai/ha) was 70, the “RICE phytotoxicity rating (crop damage)” value [18] was 0 and the “phytotoxicity rating CORN (crop damage)” value ([19]; 63 g ai/ha) was 0. The “phytotoxicity rating CORN (crop damage)” value ([19]; 250 g ai/ha) was 10, the “phytotoxicity rating RICE (crop damage)” value ([20]; 63 g ai/ha) was 15 and the “phytotoxicity rating RICE (crop damage)” value ([20]; 250 g ai/ha) was 70.
